Experimental findings from ChEMBL document CHEMBL3244211, “5-Carboxamido-4-amino-3-isoxazolidone, and asparagine analogue” (J Med Chem, 1978) are described below.

The subject of one data set is P388. In words: Antitumor activity against mouse P388 cells allografted in BDF1 mouse assessed as increase of host survival time at 200 mg/kg, ip qd for 9 days. The data set is classed as functional.
The subject of a further data set is L1210. In words: Antitumor activity against mouse L1210 cells allografted in BDF1 mouse assessed as increase of host survival time at 100 mg/kg, ip. The data set is classed as functional.
A further data set deals with Mus musculus. In words: Toxicity in mouse P388 cells allografted BDF1 mouse assessed as mortality at 200 mg/kg, ip qd for 9 days. Also on record: dose 200 mg/kg, route intraperitoneal. The conditions noted are these: in vivo, 216 h. The data set is classed as organism-based.
Data set [1] concerns the target T1, Asparagine synthetase [glutamine-hydrolyzing] (Rattus norvegicus) (UniProt P49088).
T1 sequence (whole entry): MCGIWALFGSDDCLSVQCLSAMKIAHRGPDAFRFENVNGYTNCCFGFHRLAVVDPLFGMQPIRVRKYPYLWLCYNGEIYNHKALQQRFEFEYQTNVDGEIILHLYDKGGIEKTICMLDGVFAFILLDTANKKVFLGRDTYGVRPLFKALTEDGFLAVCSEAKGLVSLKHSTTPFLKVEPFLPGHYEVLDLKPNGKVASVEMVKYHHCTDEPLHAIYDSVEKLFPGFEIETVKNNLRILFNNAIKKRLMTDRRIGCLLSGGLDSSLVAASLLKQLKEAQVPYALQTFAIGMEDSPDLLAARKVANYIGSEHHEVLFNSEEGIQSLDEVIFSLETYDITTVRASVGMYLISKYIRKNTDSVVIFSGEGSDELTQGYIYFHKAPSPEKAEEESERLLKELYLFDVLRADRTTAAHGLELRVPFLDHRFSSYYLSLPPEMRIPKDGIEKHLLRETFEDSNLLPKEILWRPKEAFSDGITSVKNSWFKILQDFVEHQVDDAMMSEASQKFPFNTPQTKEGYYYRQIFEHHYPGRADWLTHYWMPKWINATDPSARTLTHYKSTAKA
Nature of the data set: Inhibition of asparagine synthetase in rat Novikoff hepatoma.

Activity calls are given as the source filed them. The calls are words filed in the database; no cut-off is given here.

Usually T/C stands for the ratio of treated to control.

For the compound `NC(=O)[C@H]1ONC(=O)[C@@H]1N` (relative stereo), the result with P388 and in the data set with L1210 was inactive. The Activity entry in the data set on Mus musculus was “Non-toxic”. The inhibition result in data set [1] was “inactive”.
In the case of `O=C(NO)[C@H]1N[C@@H]1C(=O)NO` (relative stereo), in the data set on P388 (route intraperitoneal), the T/C worked out at 128%. Further, the Activity in the data set on L1210 (route intraperitoneal) was 13%; in the data set on Mus musculus, “Non-toxic”.
